System: RS4;11 cells
Experiment: RS4;11 cell viability assay (CellTiter Glo);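 also: acute lymphoblastic leukemia line RS4,11, EC50 derived from percentage of viable cells after treatment relative to untreated controls, cell killing taken as a measure of Bcl-2 inhibition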
Type: cell-based, human
Settings: 50,000 cells per well, 10% human serum, 48 hours; read-out: RS4; 11 EC50 Values
Experimental: The acute lymphoblastic leukemia (ALL) cell line RS4;11 was used as the primary human cell line to assess the cellular activity of Bcl-2 selective agents in vitro and their efficacy in vivo.
Cell cytotoxicity EC50 values were assessed using CellTiter Glo (Promega) according to the manufacturer's recommendations. The EC50 values were determined as a percentage of viable cells following treatment compared to the untreated control cells.

Row | Compound | EC50
1 | CC1(C)CCC(CN2CCN(c3ccc(C(=O)NS(=O)(=O)c4ccc(NCC56CC7CC(C5)C(O)C(C7)C6)c([N+](=O)[O-])c4)c(Oc4cnc5[nH]ccc5c4)c3)CC2)=C(c2ccc(Cl)cc2)C1 (centres unmarked) [Example 200, 4-(4-{[2-(4-chlorophenyl)-4,4-dimethylcyclohex-1-en-1-yl]methyl}piperazin-1-yl)-N-{[4-({[(Z)-4-hydroxy-1-adamantyl]methyl}amino)-3-nitrophenyl]sulfonyl}-2-(1H-pyrrolo[2,3-b]pyridin-5-yloxy)benzamide] | 11 nM

Same assay, conditions: Homo sapiens, RS4-11, 48 h, 50,000 cells per well, 10% human serum, 48 hours; read-out: RS4; 11 EC50 Values

Row | Compound | EC50
2 | CC1(C)CC(c2ccc(Cl)cc2)=C(CN2CCN(c3ccc(C(=O)NS(=O)(=O)c4ccc(N[C@H]5CC[C@@H](N6CCOCC6)CC5)c([N+](=O)[O-])c4)c(Oc4cnc5[nH]ccc5c4)c3)CC2)CO1 [Example 63, Cis-4-(4-{[4-(4-chlorophenyl)-6,6-dimethyl-5,6-dihydro-2H-pyran-3-yl]methyl}piperazin-1-yl)-N-({4-[(4-morpholin-4-ylcyclohexyl)amino]-3-nitrophenyl}sulfonyl)-2-(1H-pyrrolo[2,3-b]pyridin-5-yloxy)benzamide] | 7.51 nM
3 | O=C(NS(=O)(=O)c1ccc(NCCCN2CCOCC2)c([N+](=O)[O-])c1)c1ccc(N2CCN(Cc3ccccc3-c3ccc(Cl)cc3)CC2)cc1Oc1ccc2[nH]ccc2c1 [Example 88, 4-{4-[(4′-chloro-1,1′-biphenyl-2-yl)methyl]piperazin-1-yl}-2-(1H-indol-5-yloxy)-N-({4-[(3-morpholin-4-ylpropyl)amino]-3-nitrophenyl}sulfonyl)benzamide] | 447 nM
4 | CC(=O)N1CC[C@@H](Nc2ccc(S(=O)(=O)NC(=O)c3ccc(N4CCN(CC5=C(c6ccc(Cl)cc6)CC(C)(C)CC5)CC4)cc3Oc3cnc4[nH]ccc4c3)cc2[N+](=O)[O-])C1 [Example 154, N-[(4-{[(3R)-1-acetylpyrrolidin-3-yl]amino}-3-nitrophenyl)sulfonyl]-4-(4-{[2-(4-chlorophenyl)-4,4-dimethylcyclohex-1-en-1-yl]methyl}piperazin-1-yl)-2-(1H-pyrrolo[2,3-b]pyridin-5-yloxy)benzamide] | 26.5 nM
5 | CC1(C)CCC(CN2CCN(c3ccc(C(=O)NS(=O)(=O)c4ccc(NC[C@H]5CC[C@@H](O)C5)c([N+](=O)[O-])c4)c(Oc4cnc5[nH]ccc5c4)c3)CC2)=C(c2ccc(Cl)cc2)C1 [Example 158, 4-(4-{[2-(4-chlorophenyl)-4,4-dimethylcyclohex-1-en-1-yl]methyl}piperazin-1-yl)-N-{[4-({[(1S,3R)-3-hydroxycyclopentyl]methyl}amino)-3-nitrophenyl]sulfonyl}-2-(1H-pyrrolo[2,3-b]pyridin-5-yloxy)benzamide] | 17.9 nM
6 | CC1(C)CCC(CN2CCN(c3ccc(C(=O)NS(=O)(=O)c4ccc(NCC5COCCN5)c([N+](=O)[O-])c4)c(Oc4cnc5[nH]ccc5c4)c3)CC2)=C(c2ccc(Cl)cc2)C1 (centres unmarked) [Example 66, 4-(4-{[2-(4-chlorophenyl)-4,4-dimethylcyclohex-1-en-1-yl]methyl}piperazin-1-yl)-N-({4-[(morpholin-3-ylmethyl)amino]-3-nitrophenyl}sulfonyl)-2-(1H-pyrrolo[2,3-b]pyridin-5-yloxy)benzamide] | 18.9 nM
7 | CC1(C)CCC(CN2CCN(c3ccc(C(=O)NS(=O)(=O)c4ccc(OCc5ccoc5)c([N+](=O)[O-])c4)c(Oc4cnc5[nH]ccc5c4)c3)CC2)=C(c2ccc(Cl)cc2)C1 [Example 279, 4-(4-{[2-(4-chlorophenyl)-4,4-dimethylcyclohex-1-en-1-yl]methyl}piperazin-1-yl)-N-{[4-(3-furylmethoxy)-3-nitrophenyl]sulfonyl}-2-(1H-pyrrolo[2,3-b]pyridin-5-yloxy)benzamide] | 225 nM
8 | CC1(C)CCC(CN2CCN(c3ccc(C(=O)NS(=O)(=O)c4ccc(N[C@@H]5CCN(C6CC6)C5)c([N+](=O)[O-])c4)c(Oc4cnc5[nH]ccc5c4)c3)CC2)=C(c2ccc(Cl)cc2)C1 [Example 144, 4-(4-{[2-(4-chlorophenyl)-4,4-dimethylcyclohex-1-en-1-yl]methyl}piperazin-1-yl)-N-[(4-{[(3R)-1-cyclopropylpyrrolidin-3-yl]amino}-3-nitrophenyl)sulfonyl]-2-(1H-pyrrolo[2,3-b]pyridin-5-yloxy)benzamide] | 21.2 nM
9 | CC1(C)CCC(CN2CCN(c3ccc(C(=O)NS(=O)(=O)c4ccc(NC[C@@H]5CN(C6CC6)CCO5)c([N+](=O)[O-])c4)c(Oc4cnc5[nH]ccc5c4)c3)CC2)=C(c2ccc(Cl)cc2)C1 [Example 326, 4-(4-{[2-(4-chlorophenyl)-4,4-dimethylcyclohex-1-en-1-yl]methyl}piperazin-1-yl)-N-{[4-({[(2R)-4-cyclopropylmorpholin-2-yl]methyl}amino)-3-nitrophenyl]sulfonyl}-2-(1H-pyrrolo[2,3-b]pyridin-5-yloxy)benzamide] | 23.1 nM

Second part, the compound after the results:

Row | EC50 | Compound
10 | 19.7 nM | CC1(C)CCC(CN2CCN(c3ccc(C(=O)NS(=O)(=O)c4ccc(N[C@H]5CC[C@@H](N6CCOCC6)CC5)c([N+](=O)[O-])c4)c(Oc4cnc5[nH]ccc5c4)c3)CC2)=C(c2ccc(Cl)cc2)C1 [Example 39, Cis-4-(4-{[2-(4-chlorophenyl)-4,4-dimethylcyclohex-1-en-1-yl]methyl}piperazin-1-yl)-N-({4-[(4-morpholin-4-ylcyclohexyl)amino]-3-nitrophenyl}sulfonyl)-2-(1H-pyrrolo[2,3-b]pyridin-5-yloxy)benzamide]
11 | 13.3 nM | COC(=O)N1CCOC(CNc2ccc(S(=O)(=O)NC(=O)c3ccc(N4CCN(CC5=C(c6ccc(Cl)cc6)CC(C)(C)CC5)CC4)cc3Oc3cnc4[nH]ccc4c3)cc2[N+](=O)[O-])C1 (centres unmarked) [Example 317, methyl 2-{[(4-{[4-(4-{[2-(4-chlorophenyl)-4,4-dimethylcyclohex-1-en-1-yl]methyl}piperazin-1-yl)-2-(1H-pyrrolo[2,3-b]pyridin-5-yloxy)benzoyl]sulfamoyl}-2-nitrophenyl)amino]methyl}morpholine-4-carboxylate]
12 | 69.4 nM | O=C(NS(=O)(=O)c1cnc(OCC2CCOCC2)c(Cl)c1)c1ccc(N2CCN(CC3=C(c4ccc(Cl)cc4)CCC4(CCN(C(CF)CF)CC4)C3)CC2)cc1Oc1cnc2[nH]ccc2c1 [Example 267, 4-(4-{[9-(4-chlorophenyl)-3-(1,3-difluoropropan-2-yl)-3-azaspiro[5.5]undec-8-en-8-yl]methyl}piperazin-1-yl)-N-{[5-chloro-6-(tetrahydro-2H-pyran-4-ylmethoxy)pyridin-3-yl]sulfonyl}-2-(1H-pyrrolo[2,3-b]pyridin-5-yloxy)benzamide]
13 | 3.33 nM | CN1CCC(COc2ccc(S(=O)(=O)NC(=O)c3ccc(N4CCN(CC5=C(c6ccc(Cl)cc6)CC(C)(C)CC5)CC4)cc3Oc3cnc4[nH]ccc4c3)cc2[N+](=O)[O-])CC1 [Example 48, 4-(4-{[2-(4-chlorophenyl)-4,4-dimethylcyclohex-1-en-1-yl]methyl}piperazin-1-yl)-N-({4-[(1-methylpiperidin-4-yl)methoxy]-3-nitrophenyl}sulfonyl)-2-(1H-pyrrolo[2,3-b]pyridin-5-yloxy)benzamide]
14 | 91.6 nM | O=C(NS(=O)(=O)c1ccc(N[C@H]2CC[C@H](N3CCOCC3)CC2)c([N+](=O)[O-])c1)c1ccc(N2CCN(CC3=C(c4ccc(Cl)cc4)CCC4(CCCC4)C3)CC2)cc1Oc1cnc2[nH]ccc2c1 [Example 71, Trans-4-(4-{[8-(4-chlorophenyl)spiro[4.5]dec-7-en-7-yl]methyl}piperazin-1-yl)-N-({4-[(4-morpholin-4-ylcyclohexyl)amino]-3-nitrophenyl}sulfonyl)-2-(1H-pyrrolo[2,3-b]pyridin-5-yloxy)benzamide]
15 | 10.6 nM | CC1(C)CCC(CN2CCN(c3ccc(C(=O)NS(=O)(=O)c4ccc(OCC5CCCC(=O)C5)c([N+](=O)[O-])c4)c(Oc4cnc5[nH]ccc5c4)c3)CC2)=C(c2ccc(Cl)cc2)C1 (centres unmarked) [Example 205, 4-(4-{[2-(4-chlorophenyl)-4,4-dimethylcyclohex-1-en-1-yl]methyl}piperazin-1-yl)-N-({3-nitro-4-[(3-oxocyclohexyl)methoxy]phenyl}sulfonyl)-2-(1H-pyrrolo[2,3-b]pyridin-5-yloxy)benzamide]
16 | 1720 nM | C#Cc1cc(S(=O)(=O)NC(=O)c2ccc(N3CCN(CC4=C(c5ccc(Cl)cc5)CC(C)(C)CC4)CC3)cc2Oc2cnc3[nH]ccc3c2)cnc1OCC1CCOCC1 [Example 69, 4-(4-{[2-(4-chlorophenyl)-4,4-dimethylcyclohex-1-en-1-yl]methyl}piperazin-1-yl)-N-{[5-ethynyl-6-(tetrahydro-2H-pyran-4-ylmethoxy)pyridin-3-yl]sulfonyl}-2-(1H-pyrrolo[2,3-b]pyridin-5-yloxy)benzamide]
17 | 39.2 nM | CCN1CCOCC1COc1ccc(S(=O)(=O)NC(=O)c2ccc(N3CCN(CC4=C(c5ccc(Cl)cc5)CC(C)(C)CC4)CC3)cc2Oc2cnc3[nH]ccc3c2)cc1[N+](=O)[O-] (centres unmarked) [Example 103, 4-(4-{[2-(4-chlorophenyl)-4,4-dimethylcyclohex-1-en-1-yl]methyl}piperazin-1-yl)-N-({4-[(4-ethylmorpholin-3-yl)methoxy]-3-nitrophenyl}sulfonyl)-2-(1H-pyrrolo[2,3-b]pyridin-5-yloxy)benzamide]
18 | 9.78 nM | O=C(NS(=O)(=O)c1ccc(NCC2CN(C3CC3)CCO2)c([N+](=O)[O-])c1)c1ccc(N2CCN(CC3=C(c4ccc(Cl)cc4)CC4(CC3)CC4)CC2)cc1Oc1cnc2[nH]ccc2c1 (centres unmarked) [Example 330, 4-(4-{[5-(4-chlorophenyl)spiro[2.5]oct-5-en-6-yl]methyl}piperazin-1-yl)-N-[(4-{[(4-cyclopropylmorpholin-2-yl)methyl]amino}-3-nitrophenyl)sulfonyl]-2-(1H-pyrrolo[2,3-b]pyridin-5-yloxy)benzamide]
19 | 1210 nM | COCCNc1ccc(S(=O)(=O)NC(=O)c2ccc(N3CCN(CC4=C(c5ccc(Cl)cc5)CC(C)(C)CC4)CC3)cc2Oc2cnc3[nH]ccc3c2)cc1S(=O)(=O)C(F)(F)F [Example 16, 4-(4-{[2-(4-chlorophenyl)-4,4-dimethylcyclohex-1-en-1-yl]methyl}piperazin-1-yl)-N-({4-[(2-methoxyethyl)amino]-3-[(trifluoromethyl)sulfonyl]phenyl}sulfonyl)-2-(1H-pyrrolo[2,3-b]pyridin-5-yloxy)benzamide]

Same assay, conditions: Homo sapiens, RS4-11, Table 5, direct comparison Z=N with corresponding analogs Z=C; read-out: RS4; 11 EC50

Row | Compound | EC50
20 | COCCNc1ccc(S(=O)(=O)NC(=O)c2ccc(N3CCN(CC4=C(c5ccc(Cl)cc5)CC(C)(C)CC4)CC3)cc2Oc2cnc3[nH]ccc3c2)cc1S(=O)(=O)C(F)(F)F [Example 16, 4-(4-{[2-(4-chlorophenyl)-4,4-dimethylcyclohex-1-en-1-yl]methyl}piperazin-1-yl)-N-({4-[(2-methoxyethyl)amino]-3-[(trifluoromethyl)sulfonyl]phenyl}sulfonyl)-2-(1H-pyrrolo[2,3-b]pyridin-5-yloxy)benzamide] | 1210 nM
